Measured values published in ChEMBL document CHEMBL5154741, “Antibacterial alkylguanidino ureas: Molecular simplification approach, searching for membrane-based MoA” (Eur J Med Chem, 2022).
≈ marks a conversion by molar mass, not a printed value. Calls of active or inactive are those of the source. No cut-off for these calls is given here.

How the values were obtained:
Cell membrane [1] = test: Disruption of membrane integrity in Acinetobacter baumannii ATCC 17978 assessed as increase in PI uptake at 16 ug/ml measured after 15 mins by SYTO9/PI staining based fluorometric analysis; details: dose 16.0 µg/ml
Bacillus subtilis = test: Antibacterial activity against Bacillus subtilis ATCC 6633 assessed as bacterial growth inhibition incubated for 18 hrs by CLSI based micro-dilution broth method; assay type: functional
Enterococcus faecalis = test: Antibacterial activity against Enterococcus faecalis ATCC 19433 assessed as bacterial growth inhibition incubated for 18 hrs by micro-dilution broth method; assay type: functional
Staphylococcus aureus = test: Antibacterial activity against Staphylococcus aureus ATCC 25923 assessed as bacterial growth inhibition incubated for 18 hrs by micro-dilution broth method; assay type: functional
Klebsiella pneumoniae = test: Antibacterial activity against Klebsiella pneumoniae ATCC 13833 assessed as bacterial growth inhibition incubated for 18 hrs by micro-dilution broth method; assay type: functional
Acinetobacter baumannii [2] = test: Antibacterial activity against Acinetobacter baumannii ATCC 17978 assessed as bacterial growth inhibition incubated for 18 hrs by micro-dilution broth method; assay type: functional
Pseudomonas aeruginosa = test: Antibacterial activity against Pseudomonas aeruginosa ATCC 27853 assessed as bacterial growth inhibition incubated for 18 hrs by micro-dilution broth method; assay type: functional
Enterobacter cloacae = test: Antibacterial activity against Enterobacter cloacae VA-417/02 assessed as bacterial growth inhibition incubated for 18 hrs by CLSI based micro-dilution broth method; assay type: functional
Acinetobacter baumannii [3] = test: Antibacterial activity against Acinetobacter baumannii AC-54/97 assessed as bacterial growth inhibition incubated for 18 hrs by CLSI based micro-dilution broth method; assay type: functional
Lipid bilayer = test: Binding affinity to bacterial membrane mimic POPG large unilamellar vesicle assessed as bathochromic shift at 125 uM measured at t = 0 by UV-Vis spectrophotometric analysis
[4] = Apparent permeability of the compound across bacterial inner membrane mimic PC-phospholipids in PBS buffer at pH 7.4 incubated for 5 hrs by PAMPA based UV-Vis spectrophotometric analysis; assay type: ADME
[5] = Apparent permeability of the compound across bacterial inner membrane mimic PC-phospholipids in PBS buffer assessed as membrane retention at pH 7.4 incubated for 5 hrs by PAMPA based UV-Vis spectrophotometric analysis; assay type: ADME, cell membranes; details: pH 7.4, 5 h
[6] = Apparent permeability of the compound across bacterial inner membrane mimic pure POPG in PBS buffer at pH 7.4 incubated for 5 hrs by PAMPA based UV-Vis spectrophotometric analysis; assay type: ADME
[7] = Apparent permeability of the compound across bacterial inner membrane mimic pure POPG in PBS buffer assessed as membrane retention at pH 7.4 incubated for 5 hrs by PAMPA based UV-Vis spectrophotometric analysis; assay type: ADME, cell membranes; details: pH 7.4, 5 h
[8] = Apparent permeability of the compound across bacterial inner membrane mimic POPE/POPG (6:4) in PBS buffer at pH 7.4 incubated for 5 hrs by PAMPA based UV-Vis spectrophotometric analysis; assay type: ADME
[9] = Apparent permeability of the compound across bacterial inner membrane mimic POPE/POPG (6:4) in PBS buffer assessed as membrane retention at pH 7.4 incubated for 5 hrs by PAMPA based UV-Vis spectrophotometric analysis; assay type: ADME, cell membranes; details: pH 7.4, 5 h
Cell membrane [10] = test: Disruption of membrane integrity in Bacillus subtilis ATCC 6633 assessed as increase in PI uptake at 16 ug/ml measured after 15 mins by SYTO9/PI staining based fluorometric analysis; details: dose 16.0 µg/ml
Cell membrane [11] = test: Disruption of membrane integrity in Pseudomonas aeruginosa ATCC 27853 assessed as increase in PI uptake at 16 ug/ml measured every 15 mins for 6 hrs by SYTO9/PI staining based fluorometric analysis; details: dose 16.0 µg/ml
Cell membrane [12] = test: Disruption of membrane integrity in Enterococcus faecalis ATCC 19433 assessed as increase in PI uptake at 16 ug/ml measured after 15 mins by SYTO9/PI staining based fluorometric analysis; details: dose 16.0 µg/ml
Cell membrane [13] = test: Disruption of membrane integrity in Acinetobacter baumannii ATCC 17978 assessed as increase in PI positive cells at 16 ug/ml measured after 1 hr by SYTO9/PI staining based confocal laser scanning microscope analysis; details: dose 16.0 µg/ml
Cell membrane [14] = test: Disruption of membrane integrity in Escherichia coli MG1655 assessed as increase in PI positive cells at 16 ug/ml measured after 1 hr by SYTO9/PI staining based confocal laser scanning microscope analysis; assay type: subcellular; details: dose 16.0 µg/ml
Cell membrane [15] = test: Disruption of membrane integrity in Pseudomonas aeruginosa ATCC 27853 assessed as increase in PI positive cells at 16 ug/ml measured after 1 hr by SYTO9/PI staining based confocal laser scanning microscope analysis; assay type: subcellular; details: dose 16.0 µg/ml
[16] = Hemolytic activity against human RBC at 1 ug/ml incubated for 30 mins (reference value: 0%); assay type: toxicity, cell-based, Erythrocyte; details: human red blood cells (erythrocytes), at 1 µg/mL, read-out: Activity
[17] = Hemolytic activity against human RBC at 2 ug/ml incubated for 30 mins (reference value: 0%); assay type: toxicity, cell-based, Erythrocyte; details: human red blood cells (erythrocytes), at 2 µg/mL, read-out: Activity
[18] = Hemolytic activity against human RBC at 4 ug/ml incubated for 30 mins (reference value: 0%); assay type: toxicity, cell-based, Erythrocyte; details: human red blood cells (erythrocytes), at 4 µg/mL, read-out: Activity
[19] = Hemolytic activity against human RBC at 16 ug/ml incubated for 30 mins relative to control; assay type: toxicity, cell-based, Erythrocyte; details: human red blood cells (erythrocytes), at 16 µg/mL, read-out: Activity
[20] = Hemolytic activity against human RBC at 32 ug/ml incubated for 30 mins (reference value: 0%); assay type: toxicity, cell-based, Erythrocyte; details: human red blood cells (erythrocytes), at 32 µg/mL, read-out: Activity
[21] = Hemolytic activity against human RBC at 64 ug/ml incubated for 30 mins (reference value: 0%); assay type: toxicity, cell-based, Erythrocyte; details: human red blood cells (erythrocytes), at 64 µg/mL, read-out: Activity
Cell membrane [22] = test: Disruption of membrane integrity in Acinetobacter baumannii ATCC 17978 assessed as increase in PI uptake at 16 ug/ml measured after 1 hr by SYTO9/PI staining based fluorometric analysis; assay type: subcellular; details: dose 16.0 µg/ml
Cell membrane [23] = test: Disruption of membrane integrity in Bacillus subtilis ATCC 6633 assessed as increase in PI uptake at 16 ug/ml measured after 1 hr by SYTO9/PI staining based fluorometric analysis; assay type: subcellular; details: dose 16.0 µg/ml
Cell membrane [24] = test: Disruption of membrane integrity in Enterococcus faecalis ATCC 19433 assessed as increase in PI uptake at 16 ug/ml measured after 1 hr by SYTO9/PI staining based fluorometric analysis; assay type: subcellular; details: dose 16.0 µg/ml
Cell membrane [25] = test: Disruption of membrane integrity in Escherichia coli MG1655 assessed as increase in PI uptake at 16 ug/ml measured after 1 hr by SYTO9/PI staining based fluorometric analysis; assay type: subcellular; details: dose 16.0 µg/ml
Cell membrane [26] = test: Disruption of membrane integrity in Pseudomonas aeruginosa ATCC 27853 assessed as increase in PI uptake at 16 ug/ml measured after 1 hr by SYTO9/PI staining based fluorometric analysis; assay type: subcellular; details: dose 16.0 µg/ml
Cell membrane [27] = test: Disruption of membrane integrity in Staphylococcus aureus ATCC 25923 assessed as increase in PI uptake at 16 ug/ml measured after 1 hr by SYTO9/PI staining based fluorometric analysis; details: dose 16.0 µg/ml

SMILES	Activity (Cell membrane [1])	MIC (Bacillus subtilis)	MIC (Enterococcus faecalis)	MIC (Staphylococcus aureus)	MIC (Klebsiella pneumoniae)	MIC (Acinetobacter baumannii [2])	MIC (Pseudomonas aeruginosa)	MBC (Enterobacter cloacae)	MIC (Enterobacter cloacae)	MBC (Acinetobacter baumannii [3])	MIC (Acinetobacter baumannii [3])	Activity (Lipid bilayer)	Papp at 5 h [4]	R% [5]	Papp at 5 h [6]	R% [7]	Papp at 5 h [8]	R% [9]	Activity (Cell membrane [10])	Activity (Cell membrane [11])	further results
N=C(NCCCCCCCCNC(N)=O)NCC1CC1.O=C(O)C(F)(F)F	Active	1 µg/mL	1 µg/mL	1 µg/mL	1 µg/mL	16 µg/mL	16 µg/mL	8 µg/mL	4 µg/mL	16 µg/mL	16 µg/mL	Active	3.17 ×10⁻⁶ cm/s	7.7%	6.1 ×10⁻⁶ cm/s	16%	3.48 ×10⁻⁶ cm/s	3.2%	Active	Active	Activity (Cell membrane [12]): Active; Activity (Cell membrane [13]): Active; Activity (Cell membrane [14]): Active; Activity (Cell membrane [15]): Active; hemolysis at 0.5 h, 1 ug/ml [16]: 0%; hemolysis at 0.5 h, 2 ug/ml [17]: 0%; hemolysis at 0.5 h, 4 ug/ml [18]: 0%; hemolysis at 0.5 h, 16 ug/ml [19]: 0%; hemolysis at 0.5 h, 32 ug/ml [20]: 0%; hemolysis at 0.5 h, 64 ug/ml [21]: 0%; Activity (Cell membrane [22]): Active; Activity (Cell membrane [23]): Active; Activity (Cell membrane [24]): Active; Activity (Cell membrane [25]): Active; Activity (Cell membrane [26]): Active; Activity (Cell membrane [27]): Active
CCCCCCCCN(CCCCCCCCNC(=N)NCC1CC1)C(=O)N(CCCCCCNC(=N)NCC1CC1)CCCCCCNC(=N)NCC1CC1	Active	0.5 µg/mL (≈ 0.636 µM)	0.5 µg/mL (≈ 0.636 µM)	2 µg/mL (≈ 2.54 µM)	4 µg/mL (≈ 5.09 µM)	16 µg/mL (≈ 20.3 µM)	16 µg/mL (≈ 20.3 µM)	8 µg/mL (≈ 10.2 µM)	8 µg/mL (≈ 10.2 µM)	8 µg/mL (≈ 10.2 µM)	8 µg/mL (≈ 10.2 µM)	Active	4.79 ×10⁻⁶ cm/s	0%	0.18 ×10⁻⁶ cm/s	63%	0.13 ×10⁻⁶ cm/s	65.2%	Active	Active	Activity (Cell membrane [12]): Active; Activity (Cell membrane [13]): Active; Activity (Cell membrane [14]): Active; Activity (Cell membrane [15]): Active; hemolysis at 0.5 h, 1 ug/ml [16]: 0%; hemolysis at 0.5 h, 2 ug/ml [17]: 0%; hemolysis at 0.5 h, 4 ug/ml [18]: 0.5%; hemolysis at 0.5 h, 16 ug/ml [19]: 2.4%; hemolysis at 0.5 h, 32 ug/ml [20]: 8.4%; hemolysis at 0.5 h, 64 ug/ml [21]: 46.4%; Activity (Cell membrane [22]): Active; Activity (Cell membrane [23]): Active; Activity (Cell membrane [24]): Active; Activity (Cell membrane [25]): Active; Activity (Cell membrane [26]): Active; Activity (Cell membrane [27]): Active
N=C(N)NCCCCCCCCN(CCCCCCCCNC(=N)NCC1CC1)C(=O)N(CCCCCCCCNC(=N)NCC1CC1)CCCCCCCCNC(=N)NCC1CC1.O=C(O)C(F)(F)F	Active	0.5 µg/mL	1 µg/mL	0.5 µg/mL	1 µg/mL	4 µg/mL	8 µg/mL	2 µg/mL	2 µg/mL	8 µg/mL	8 µg/mL	Active	1.85 ×10⁻⁶ cm/s	0%	0.26 ×10⁻⁶ cm/s	56%	0.3 ×10⁻⁶ cm/s	40.8%	Active	Active	Activity (Cell membrane [12]): Active; Activity (Cell membrane [13]): Active; Activity (Cell membrane [14]): Active; Activity (Cell membrane [15]): Active; hemolysis at 0.5 h, 1 ug/ml [16]: 0%; hemolysis at 0.5 h, 2 ug/ml [17]: 0%; hemolysis at 0.5 h, 4 ug/ml [18]: 0%; hemolysis at 0.5 h, 16 ug/ml [19]: 1.1%; hemolysis at 0.5 h, 32 ug/ml [20]: 3.3%; hemolysis at 0.5 h, 64 ug/ml [21]: 8.1%; Activity (Cell membrane [22]): Active; Activity (Cell membrane [23]): Active; Activity (Cell membrane [24]): Active; Activity (Cell membrane [25]): Active; Activity (Cell membrane [26]): Active; Activity (Cell membrane [27]): Active
